According to US8906962B2, “Compositions and methods for treating hair loss using non-naturally occurring prostaglandins” (Duke University, priority 2000, dated 2014):
pIC50: −log10 of the molar value.

Columns and labels:
hFP = biological target: T1, hFP (Homo sapiens, UniProt P43088); assay: Radioligand Binding Assay (competition with (3H) PGF2 on hFP membranes); conditions: relative to PGF2α, hFP membranes from transfected COS-7 cells
T1 construct: expressed in transfected cells; host or cells: COS-7 cells, transient transfection with LipofectAMINE; membranes prepared
T1 sequence (P43088 whole entry): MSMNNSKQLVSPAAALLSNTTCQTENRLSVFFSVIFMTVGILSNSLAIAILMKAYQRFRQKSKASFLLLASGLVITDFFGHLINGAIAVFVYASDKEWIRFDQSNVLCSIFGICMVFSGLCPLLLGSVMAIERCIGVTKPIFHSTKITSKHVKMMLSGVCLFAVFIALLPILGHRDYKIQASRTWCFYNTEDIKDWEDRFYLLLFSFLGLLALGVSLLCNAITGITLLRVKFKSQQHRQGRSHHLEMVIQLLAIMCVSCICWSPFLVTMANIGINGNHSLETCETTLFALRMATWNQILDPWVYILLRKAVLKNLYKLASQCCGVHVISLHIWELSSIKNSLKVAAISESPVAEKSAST
Experimental: IC50 of a PGF can be determined relative to PGF2α using the Radioligand Binding Assay. As a control, the IC50 for PGF2α itself should be no lower than 1.0 nM and no higher than 5.0 nM.
In this assay, COS-7 cells are transiently transfected with the hFP recombinant plasmid using LipofectAMINE Reagent. Forty-eight hours later, the tranfected cells are washed with Hank's Balanced Salt Solution (HBSS, without CaCl2, MgCl2, MgSO4, or phenol red). The cells are detached with versene, and HBSS is added. The mixture is centrifuged at 200 g for 10 minutes, at 4° C. to pellet the cells. The pellet is resuspended in Phosphate-Buffered Saline-EDTA buffer (PBS; 1 mM EDTA; pH 7.4; 4° C.). The cells are disrupted by nitrogen cavitation (Parr model 4639), at 800 psi, for 15 minutes at 4° C. The mixture is centrifuged at 1000 g for 10 minutes at 4° C. The supernatant is centrifuged at 100,000 g for 60 minutes at 4° C. The pellet is resuspended to 1 mg protein/mL TME buffer (50 mM Tris; 10 mM MgCl2; 1 mM EDTA; pH 6.0; 4° C.) based on protein levels measured using the Pierce BCA Protein Assay kit. The homogenate is mixed for 10 seconds using a Kinematica POLYTRON® (available from KINEMATICA AG, Luzernerstrassel47A CH-6014 Littau, Switzerland). The membrane preparations are then stored at −80° C., until thawed for assay use.
The receptor competition binding assays are developed in a 96 well format. Each well contains […] of hFP membrane, 5 nM (3H) PGF2, and the various competing compounds in a total volume of […]. The plates are incubated at 23° C. for 1 hour. The incubation is terminated by rapid filtration using the Packard Filtermate 196 harvester through Packard UNIFILTER® GF/B filters (available from Packard Instrument Co., Inc. of Downers Grove Ill.) pre-wetted with TME buffer. The filter is washed four times with TME buffer. […] The plates are read on a Packard TOPCOUNT® Microplate Scintillation Counter (also available from Packard Instrument Co., Inc.)

C3H mice = assay: Telogen Conversion Assay (topical, skin colour grade, hair growth); assay type: in vivo; conditions: for Grades (average animal score): day 26, visual grade 0 to 4 of skin colour (Table 4)
Experimental: PGF's are tested for their potential to grow hair using the Telogen Conversion Assay. The Telogen Conversion Assay measures the potential of a PGF to convert mice in the resting stage of the hair growth cycle (“telogen”), to the growth stage of the hair growth cycle (“anagen”).
Without intending to be limited by theory, there are three principal phases of the hair growth cycle: anagen, catagen, and telogen. It is believed that there is a longer telogen period in C3H mice (Harlan Sprague Dawley, Inc., Indianapolis, Ind.) from approximately 40 days of age until about 75 days of age, when hair growth is synchronized. It is believed that after 75 days of age, hair growth is no longer synchronized. Wherein about 40 day-old mice with dark fur (brown or black) are used in hair growth experiments, melanogenesis occurs along with hair (fur) growth wherein the topical application of hair growth inducers are evaluated. The Telogen Conversion Assay herein is used to screen PGF's for potential hair growth by measuring melanogenesis.
Three groups of 44 day-old C3H mice are used: a vehicle control group, a positive control group, and a test PGF group, wherein the test PGF group is administered a PGF used in the method of this invention. […] Day 1 is the first day of treatment. Typical dosage concentrations are set forth in Table 3, however the skilled artisan will readily understand that such concentrations may be modified.
The mice are treated topically Monday through Friday on their lower back (base of tail to the lower rib). A pipettor and tip are used to deliver 400 μL to each mouse's back. The 400 μL application is applied slowly while moving hair on the mouse to allow the application to reach the skin.
While each treatment is being applied to the mouse topically, a visual grade of from 0 to 4 will be given to the skin color in the application area of each animal. As a mouse converts from telogen to anagen, its skin color will become more bluish-black.

EP1 receptor = biological target: T2, EP1 receptor (Homo sapiens, UniProt P34995); assay: Receptor selectivity statement (EP1 activation); conditions: stated without method; said to result in the side effect of pain
T2 sequence (P34995 1-402): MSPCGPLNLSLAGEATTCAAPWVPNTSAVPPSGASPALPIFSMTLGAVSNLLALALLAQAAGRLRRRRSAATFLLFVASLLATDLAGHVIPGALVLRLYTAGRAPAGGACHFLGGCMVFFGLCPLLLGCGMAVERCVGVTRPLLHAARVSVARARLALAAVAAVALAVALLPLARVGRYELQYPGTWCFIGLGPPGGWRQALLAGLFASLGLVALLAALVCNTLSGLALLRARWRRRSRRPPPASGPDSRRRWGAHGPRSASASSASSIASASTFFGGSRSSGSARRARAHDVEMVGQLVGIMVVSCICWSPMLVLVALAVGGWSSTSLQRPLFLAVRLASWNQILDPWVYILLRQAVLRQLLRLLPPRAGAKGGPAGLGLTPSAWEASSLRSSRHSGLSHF

Compound	pIC50 (hFP)	hair growth / activity (C3H mice; 0.01% topical)	Grades (average animal score) (C3H mice; 0.01%)	hair growth / activity (C3H mice; 0.1% topical)	Grades (average animal score) (C3H mice; 0.1%)	also measured
O=C(O)CCCCCC[C@@H]1[C@@H](CCC(O)c2cc3ccccc3s2)[C@H](O)C[C@@H]1O (some centres unmarked) [Example 3-2]	7.57	–	–	–	–	–
COC(=O)CCC/C=C\C[C@@H]1[C@@H](/C=C/[C@@H](O)COc2cccc(C(F)(F)F)c2)[C@H](O)C[C@@H]1O [Fluprostenol Methyl Ester]	–	grew hair	3.9	grew hair	2.6	–
Latanoprost [reference compound]	–	active	0.71	active	2.9	activation of EP1 receptor (nonselective) (EP1 receptor): activates the EP1 receptor
O=C(O)CCCCCC[C@@H]1[C@@H](CCC(O)C#Cc2ccccc2F)[C@H](O)C[C@@H]1O (some centres unmarked) [Example 3-1]	7.72	–	–	–	–	–
N[C@@H](Cc1cc(I)c(Oc2ccc(O)c(I)c2)c(I)c1)C(=O)O [T3 compound, 3,5,3′-triiodothyronine, reference compound]	–	grew hair	–	–	–	–
O=C(O)CCCCCC[C@@H]1[C@@H](CCC(O)c2nc3ccccc3s2)[C@H](O)C[C@@H]1O (stereo partly drawn) [13,14-dihydro-15-(2-benzathiozolyl)pentanor Prostaglandin F1α]	7.35	–	–	–	–	hair growth (C3H mice; concentration not given): grew hair
